In US6875578B2, “System for cell-based screening” (priority 1997, dated 2005):

Tested on: BHK cells
Test: Apoptosis actin reorganization (f-actin content), BHK cells
Format: cell-based
Conditions: 30 hours
Protocol: Cells were plated in 96-well plates at densities of 3×10^3 to 1×10^4 cells/well. The following day apoptotic inducers were added at indicated concentrations. Cells were incubated for the indicated time periods (usually 16-30 hours). The next day the medium was removed and cells were stained with 5 μg/ml Hoechst (Molecular Probes, Inc.) in fresh medium and incubated for 30 minutes at […]. Cells were washed in HBSS and fixed with 3.7% formaldehyde in HBSS at room temperature. Plates were washed with HBSS and permeabilized with 0.5% v/v Triton X-100 in HBSS at room temperature. Plates were washed in HBSS and stained with 100 μl of 1 U/ml of Alexa 488 Phalloidin stock (100 μl/well, Molecular Probes, Inc.). Cells were washed 2×with HBSS at RT and the plate was sealed.
Quantitation of f-actin content was accomplished by measuring the intensity of phalloidin staining around the nucleus. This was determined to be a reasonable approximation of a full cytoplasmic average of the intensity. The mask used to approximate this cytoplasmic measure was derived from the nuclear mask defined by the Hoechst stain. Derivation was accomplished by combinations of erosions and dilations.

## CC(=O)O[C@H]1C(=O)[C@@]2(C)[C@H]([C@H](OC(=O)c3ccccc3)[C@]3(O)C[C@H](OC(=O)[C@H](O)[C@@H](NC(=O)c4ccccc4)c4ccccc4)C(C)=C1C3(C)C)[C@]1(OC(C)=O)CO[C@@H]1C[C@@H]2O [paclitaxel]
  change in peri-nuclear f-actin content: results that are more variable
Listed as Paclitaxel
  change in peri-nuclear f-actin content: highly variable
